biological target: human capsaicin receptor (VR1) (Homo sapiens, UniProt Q8NER1); assay: Capsaicin receptor binding assay ([3H]RTX competition, VR1-transfected HEK293 membranes)
Sequence (Q8NER1 whole entry): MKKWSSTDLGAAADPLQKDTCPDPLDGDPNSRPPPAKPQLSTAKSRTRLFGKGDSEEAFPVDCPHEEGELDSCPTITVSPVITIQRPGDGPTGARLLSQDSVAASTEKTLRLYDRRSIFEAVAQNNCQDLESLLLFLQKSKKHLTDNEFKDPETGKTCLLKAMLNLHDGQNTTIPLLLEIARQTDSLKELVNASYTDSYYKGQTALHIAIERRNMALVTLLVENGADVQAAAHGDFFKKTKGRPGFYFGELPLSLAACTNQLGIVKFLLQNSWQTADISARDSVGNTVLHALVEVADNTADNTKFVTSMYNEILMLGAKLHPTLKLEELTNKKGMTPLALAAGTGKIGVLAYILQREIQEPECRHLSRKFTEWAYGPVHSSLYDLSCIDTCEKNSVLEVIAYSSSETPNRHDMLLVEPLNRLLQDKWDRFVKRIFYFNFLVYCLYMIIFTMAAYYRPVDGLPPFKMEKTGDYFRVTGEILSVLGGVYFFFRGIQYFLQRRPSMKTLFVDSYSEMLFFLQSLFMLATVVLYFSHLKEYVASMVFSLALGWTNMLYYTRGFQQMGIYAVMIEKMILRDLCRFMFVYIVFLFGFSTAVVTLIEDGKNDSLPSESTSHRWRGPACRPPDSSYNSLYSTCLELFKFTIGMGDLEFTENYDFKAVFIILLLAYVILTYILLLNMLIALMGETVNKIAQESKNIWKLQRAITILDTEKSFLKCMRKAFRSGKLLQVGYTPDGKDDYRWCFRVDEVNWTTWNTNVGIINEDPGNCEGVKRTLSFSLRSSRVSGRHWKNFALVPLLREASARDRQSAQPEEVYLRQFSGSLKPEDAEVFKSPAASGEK

Ki, < 1000 nM:
CC1CC(C)CC(NC(=O)c2nc(Nc3ccc(C(F)(F)F)cc3)c3ccc(-c4ncccc4C(F)(F)F)nc3n2)C1 (stereo not shown) [Compound 470, 4-(4-Trifluoromethyl-phenylamino)-7-(3-trifluoromethyl-pyridin-2-yl)-pyrido[2,3-d]pyrimidine-2-carboxylic acid (3,5-dimethyl-cyclohexyl)-amide]
CC(C)N1CCN(C(=O)c2nc(Nc3ccc(C(F)(F)F)cc3)c3ccc(-c4ncccc4C(F)(F)F)nc3n2)CC1 [Compound 471, (4-Isopropyl-piperazin-1-yl)-[4-(4-trifluoromethyl-phenylamino)-7-(3-trifluoromethyl-pyridin-2-yl)-pyrido[2,3-d]pyrimidin-2-yl]-methanone]
CN1CCN(C(=O)c2nc(Nc3ccc(C(F)(F)F)cc3)c3ccc(-c4ncccc4C(F)(F)F)nc3n2)CC1 [Compound 472, (4-Methyl-piperazin-1-yl)-[4-(4-trifluoromethyl-phenylamino)-7-(3-trifluoromethyl-pyridin-2-yl)-pyrido[2,3-d]pyrimidin-2-yl]-methanone]
O=C(c1nc(Nc2ccc(C(F)(F)F)cc2)c2ccc(-c3ncccc3C(F)(F)F)nc2n1)N1CCN(C2CCCC2)CC1 [Compound 473, (4-Cyclopentyl-piperazin-1-yl)-[4-(4-trifluoromethyl-phenylamino)-7-(3-trifluoromethyl-pyridin-2-yl)-pyrido[2,3-d]pyrimidin-2-yl]-methanone]
O=C(c1nc(Nc2ccc(C(F)(F)F)cc2)c2ccc(-c3ncccc3C(F)(F)F)nc2n1)N1CCN(C2CCCCCC2)CC1 [Compound 474, (4-Cycloheptyl-piperazin-1-yl)-[4-(4-trifluoromethyl-phenylamino)-7-(3-trifluoromethyl-pyridin-2-yl)-pyrido[2,3-d]pyrimidin-2-yl]-methanone]
CC(C)(C)c1ccc(Nc2nc(CN3CCCC3)nc3cc(-c4ncccc4C(F)(F)F)ccc23)cc1 [Compound 475, (4-tert-Butyl-phenyl)-[2-pyrrolidin-1-ylmethyl-7-(3-trifluoromethyl-pyridin-2-yl)-quinazolin-4-yl]-amine]
CC(C)(C)c1ccc(Nc2nc(CN3CCCCC3)nc3cc(-c4ncccc4C(F)(F)F)ccc23)cc1 [Compound 476, (4-tert-Butyl-phenyl)-[2-piperidin-1-ylmethyl-7-(3-trifluoromethyl-pyridin-2-yl)-quinazolin-4-yl]-amine]
O=C(CCc1nc(Nc2ccc(C(F)(F)F)cc2)c2ccc(-c3ncccc3C(F)(F)F)cc2n1)N1CCCC1 [Compound 478, 1-Pyrrolidin-1-yl-3-[4-(4-trifluoromethyl-phenylamino)-7-(3-trifluoromethyl-pyridin-2-yl)-quinazolin-2-yl]-propan-1-one]
OCCC1CCN(Cc2nc(Nc3ccc(C(F)(F)F)nc3)c3ccc(-c4ncccc4C(F)(F)F)cc3n2)CC1 [Compound 481, 2-{1-[7-(3-Trifluoromethyl-pyridin-2-yl)-4-(6-trifluoromethyl-pyridin-3-ylamino)-quinazolin-2-ylmethyl]-piperidin-4-yl}-ethanol]
OCC1CCN(Cc2nc(Nc3ccc(C(F)(F)F)nc3)c3ccc(-c4ncccc4C(F)(F)F)cc3n2)CC1 [Compound 482, {1-[7-(3-Trifluoromethyl-pyridin-2-yl)-4-(6-trifluoromethyl-pyridin-3-ylamino)-quinazolin-2-ylmethyl]-piperidin-4-yl}-methanol]
CCOC(=O)N1CCN(Cc2nc(Nc3ccc(C(F)(F)F)nc3)c3ccc(-c4ncccc4C(F)(F)F)cc3n2)CC1 [Compound 483, 4-[7-(3-Trifluoromethyl-pyridin-2-yl)-4-(6-trifluoromethyl-pyridin-3-ylamino)-quinazolin-2-ylmethyl]-piperazine-1-carboxylic acid ethyl ester]
OC1CCN(Cc2nc(Nc3ccc(C(F)(F)F)nc3)c3ccc(-c4ncccc4C(F)(F)F)cc3n2)CC1 [Compound 484, 1-[7-(3-Trifluoromethyl-pyridin-2-yl)-4-(6-trifluoromethyl-pyridin-3-ylamino)-quinazolin-2-ylmethyl]-piperidin-4-ol]
CC1CCCN(Cc2nc(Nc3ccc(C(F)(F)F)nc3)c3ccc(-c4ncccc4C(F)(F)F)cc3n2)C1 (stereo not shown) [Compound 485, [2-(3-Methyl-piperidin-1-ylmethyl)-7-(3-trifluoromethyl-pyridin-2-yl)-quinazolin-4-yl]-(6-trifluoromethyl-pyridin-3-yl)-amine]
OC1CCCN(Cc2nc(Nc3ccc(C(F)(F)F)nc3)c3ccc(-c4ncccc4C(F)(F)F)cc3n2)C1 (stereo not shown) [Compound 486, 1-[7-(3-Trifluoromethyl-pyridin-2-yl)-4-(6-trifluoromethyl-pyridin-3-ylamino)-quinazolin-2-ylmethyl]-piperidin-3-ol]
NC(=O)C1CCN(Cc2nc(Nc3ccc(C(F)(F)F)nc3)c3ccc(-c4ncccc4C(F)(F)F)cc3n2)CC1 [Compound 487, 1-[7-(3-Trifluoromethyl-pyridin-2-yl)-4-(6-trifluoromethyl-pyridin-3-ylamino)-quinazolin-2-ylmethyl]-piperidine-4-carboxylic acid amide]
CCOC(=O)C1CCCN(Cc2nc(Nc3ccc(C(F)(F)F)nc3)c3ccc(-c4ncccc4C(F)(F)F)cc3n2)C1 (stereo not shown) [Compound 488, 1-[7-(3-Trifluoromethyl-pyridin-2-yl)-4-(6-trifluoromethyl-pyridin-3-ylamino)-quinazolin-2-ylmethyl]-piperidine-3-carboxylic acid ethyl ester]
CC(=O)N1CCN(Cc2nc(Nc3ccc(C(F)(F)F)nc3)c3ccc(-c4ncccc4C(F)(F)F)cc3n2)CC1 [Compound 489, 1 -{4-[7-(3-Trifluoromethyl-pyridin-2-yl)-4-(6-trifluoromethyl-pyridin-3-ylamino)-quinazolin-2-ylmethyl]-piperazin-1-yl}-ethanone]
OCC1CCCN(Cc2nc(Nc3ccc(C(F)(F)F)nc3)c3ccc(-c4ncccc4C(F)(F)F)cc3n2)C1 (stereo not shown) [Compound 490, {1-[7-(3-Trifluoromethyl-pyridin-2-yl)-4-(6-trifluoromethyl-pyridin-3-ylamino)-quinazolin-2-ylmethyl]-piperidin-3-yl}-methanol]
CCOC(=O)C1CCN(Cc2nc(Nc3ccc(C(F)(F)F)nc3)c3ccc(-c4ncccc4C(F)(F)F)cc3n2)CC1 [Compound 491, 1-[7-(3-Trifluoromethyl-pyridin-2-yl)-4-(6-trifluoromethyl-pyridin-3-ylamino)-quinazolin-2-ylmethyl]-piperidine-4-carboxylic acid ethyl ester]
OCCN1CCN(Cc2nc(Nc3ccc(C(F)(F)F)nc3)c3ccc(-c4ncccc4C(F)(F)F)cc3n2)CC1 [Compound 492, 2-{4-[7-(3-Trifluoromethyl-pyridin-2-yl)-4-(6-trifluoromethyl-pyridin-3-ylamino)-quinazolin-2-ylmethyl]-piperazin-1-yl}-ethanol]
OCCC1CCN(Cc2nc(Nc3ccc(C(F)(F)F)cc3)c3ccc(-c4ncccc4C(F)(F)F)cc3n2)CC1 [Compound 494, 2-{1-[4-(4-Trifluoromethyl-phenylamino)-7-(3-trifluoromethyl-pyridin-2-yl)-quinazolin-2-ylmethyl]-piperidin-4-yl}-ethanol]
OCC1CCN(Cc2nc(Nc3ccc(C(F)(F)F)cc3)c3ccc(-c4ncccc4C(F)(F)F)cc3n2)CC1 [Compound 495, {1-[4-(4-Trifluoromethyl-phenylamino)-7-(3-trifluoromethyl-pyridin-2-yl)-quinazolin-2-ylmethyl]-piperidin-4-yl}-methanol]
OC1CCN(Cc2nc(Nc3ccc(C(F)(F)F)cc3)c3ccc(-c4ncccc4C(F)(F)F)cc3n2)CC1 [Compound 496, 1-[4-(4-Trifluoromethyl-phenylamino)-7-(3-trifluoromethyl-pyridin-2-yl)-quinazolin-2-ylmethyl]-piperidin-4-ol]
OCC1CCCCN1Cc1nc(Nc2ccc(C(F)(F)F)cc2)c2ccc(-c3ncccc3C(F)(F)F)cc2n1 (stereo not shown) [Compound 497, {1-[4-(4-Trifluoromethyl-phenylamino)-7-(3-trifluoromethyl-pyridin-2-yl)-quinazolin-2-ylmethyl]piperidin-2-yl}-methanol]
CC1CCCN(Cc2nc(Nc3ccc(C(F)(F)F)cc3)c3ccc(-c4ncccc4C(F)(F)F)cc3n2)C1 (stereo not shown) [Compound 498, [2-(3-Methyl-piperidin-1-ylmethyl)-7-(3-yl)-quinazolin-4-yl]-(4-trifluoromethyl-phenyl)-amine]
OC1CCCN(Cc2nc(Nc3ccc(C(F)(F)F)cc3)c3ccc(-c4ncccc4C(F)(F)F)cc3n2)C1 (stereo not shown) [Compound 499, 1-[4-(4-Trifluoromethyl-phenylamino)-7-(3-trifluoromethyl-pyridin-2-yl)-quinazolin-2-ylmethyl]-piperidin-3-ol]
NC(=O)C1CCN(Cc2nc(Nc3ccc(C(F)(F)F)cc3)c3ccc(-c4ncccc4C(F)(F)F)cc3n2)CC1 [Compound 500, 1-[4-(4-Trifluoromethyl-phenylamino)-7-(3-trifluoromethyl-pyridin-2-yl)-quinazolin-2-ylmethyl]-piperidine-4-carboxylic acid amide]
CCOC(=O)C1CCCN(Cc2nc(Nc3ccc(C(F)(F)F)cc3)c3ccc(-c4ncccc4C(F)(F)F)cc3n2)C1 (stereo not shown) [Compound 501, 1-[4-(4-Trifluoromethyl-phenylamino)-7-(3-trifluoromethyl-pyridin-2-yl)-quinazolin-2-ylmethyl]-piperidine-3-carboxylic acid ethyl ester]
